Experimental data as given in publication PMC11314561, “Design and Synthesis of Novel Aminoindazole-pyrrolo[2,3-b]pyridine Inhibitors of IKKα That Selectively Perturb Cellular Non-Canonical NF-κB Signalling” (Molecules, 2024).

Legend:
Assay in all cases: kinase panel
Format in all cases: biochemical
ACK1(h) = ACK1(h) (Homo sapiens, UniProt Q07912)
From the text: (§1) We profiled three compounds from the series across the kinome (Table S1).
(§2) Ta b l e S1. The % inhibition of compounds 4, 5r [SU1261], and 6g [SU1349] against a
(§3) panel of kinase enzymes. We proϐiled three compounds from the series across 231
(§4) kinases. For SU1349, given its structural similarity with SU1261, we selected 98 from the
(§5) Tested kinase % inhibiƟon

HIPK1(h) = HIPK1(h) (Homo sapiens, UniProt Q86Z02)
From the text: as §1, §2, §3, §4, §5

AMPKα1(h) = AMPKα1(h) (Homo sapiens, UniProt Q13131)
From the text: as §1, §2, §3, §4, §5

CaMKIV(h) = target: T1, CaMKIV(h) (Homo sapiens, UniProt Q16566)
T1 sequence (Q16566 1-473): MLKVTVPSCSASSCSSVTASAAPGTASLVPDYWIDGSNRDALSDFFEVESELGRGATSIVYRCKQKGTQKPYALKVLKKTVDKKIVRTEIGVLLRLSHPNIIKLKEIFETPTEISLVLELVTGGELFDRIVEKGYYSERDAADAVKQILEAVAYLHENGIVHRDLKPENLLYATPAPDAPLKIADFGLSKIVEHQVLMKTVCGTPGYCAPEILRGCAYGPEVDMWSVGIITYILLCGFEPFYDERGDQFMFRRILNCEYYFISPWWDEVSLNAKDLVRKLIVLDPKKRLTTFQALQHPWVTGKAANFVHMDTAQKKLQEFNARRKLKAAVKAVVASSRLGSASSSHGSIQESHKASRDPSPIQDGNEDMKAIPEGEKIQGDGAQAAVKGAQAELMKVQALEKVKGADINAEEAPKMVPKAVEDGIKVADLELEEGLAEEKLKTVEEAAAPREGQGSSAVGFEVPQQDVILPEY
From the text: as §1, §2, §3, §4, §5

PAK2(h) = PAK2(h) (Homo sapiens, UniProt Q13177)
From the text: as §1, §2, §3, §4, §5

TAO1(h) = target: T2, TAO1(h) (Homo sapiens, UniProt Q7L7X3)
T2 sequence (Q7L7X3 1-1001): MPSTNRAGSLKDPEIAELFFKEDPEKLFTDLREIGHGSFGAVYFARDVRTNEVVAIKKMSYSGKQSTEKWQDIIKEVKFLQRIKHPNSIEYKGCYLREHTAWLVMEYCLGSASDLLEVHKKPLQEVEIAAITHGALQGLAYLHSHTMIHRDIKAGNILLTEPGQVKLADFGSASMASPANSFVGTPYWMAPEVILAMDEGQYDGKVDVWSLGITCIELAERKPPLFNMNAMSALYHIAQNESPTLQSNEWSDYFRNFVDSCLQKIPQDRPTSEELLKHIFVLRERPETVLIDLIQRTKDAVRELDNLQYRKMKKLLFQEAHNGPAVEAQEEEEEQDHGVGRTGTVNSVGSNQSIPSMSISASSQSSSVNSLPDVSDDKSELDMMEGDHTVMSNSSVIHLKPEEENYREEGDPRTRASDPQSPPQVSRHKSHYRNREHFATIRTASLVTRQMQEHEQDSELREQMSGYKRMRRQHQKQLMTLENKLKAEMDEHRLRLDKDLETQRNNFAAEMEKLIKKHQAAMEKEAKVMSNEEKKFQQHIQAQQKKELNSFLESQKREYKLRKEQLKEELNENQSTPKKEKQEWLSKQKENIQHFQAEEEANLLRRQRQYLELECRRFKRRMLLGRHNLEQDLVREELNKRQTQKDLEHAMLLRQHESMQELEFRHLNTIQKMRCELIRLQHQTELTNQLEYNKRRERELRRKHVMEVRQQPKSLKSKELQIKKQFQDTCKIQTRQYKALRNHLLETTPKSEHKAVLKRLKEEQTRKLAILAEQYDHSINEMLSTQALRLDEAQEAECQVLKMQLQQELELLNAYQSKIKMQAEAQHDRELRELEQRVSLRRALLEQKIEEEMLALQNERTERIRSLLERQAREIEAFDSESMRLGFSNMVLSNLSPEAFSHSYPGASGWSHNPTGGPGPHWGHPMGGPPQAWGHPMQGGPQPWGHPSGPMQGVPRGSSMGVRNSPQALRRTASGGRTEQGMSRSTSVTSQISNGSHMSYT
From the text: as §1, §2, §3, §4, §5

SAPK3(h) = target: T3, SAPK3(h) (Homo sapiens, UniProt P53778)
T3 sequence (P53778 1-367): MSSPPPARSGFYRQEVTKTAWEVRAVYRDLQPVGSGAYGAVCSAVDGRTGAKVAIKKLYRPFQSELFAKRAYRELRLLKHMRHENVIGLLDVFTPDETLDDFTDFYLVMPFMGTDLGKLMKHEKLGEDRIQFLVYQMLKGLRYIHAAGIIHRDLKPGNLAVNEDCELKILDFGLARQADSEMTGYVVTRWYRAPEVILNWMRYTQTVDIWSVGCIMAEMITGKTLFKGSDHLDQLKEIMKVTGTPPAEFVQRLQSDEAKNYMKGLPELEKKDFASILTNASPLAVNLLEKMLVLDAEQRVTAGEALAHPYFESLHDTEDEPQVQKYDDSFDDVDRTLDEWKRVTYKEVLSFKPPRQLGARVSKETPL
From the text: as §1, §2, §3, §4, §5

Plk1(h) = Plk1(h) (Homo sapiens, UniProt P53350)
From the text: as §1, §2, §3, §4, §5

Chain of ACK1(h) (Q07912 whole entry): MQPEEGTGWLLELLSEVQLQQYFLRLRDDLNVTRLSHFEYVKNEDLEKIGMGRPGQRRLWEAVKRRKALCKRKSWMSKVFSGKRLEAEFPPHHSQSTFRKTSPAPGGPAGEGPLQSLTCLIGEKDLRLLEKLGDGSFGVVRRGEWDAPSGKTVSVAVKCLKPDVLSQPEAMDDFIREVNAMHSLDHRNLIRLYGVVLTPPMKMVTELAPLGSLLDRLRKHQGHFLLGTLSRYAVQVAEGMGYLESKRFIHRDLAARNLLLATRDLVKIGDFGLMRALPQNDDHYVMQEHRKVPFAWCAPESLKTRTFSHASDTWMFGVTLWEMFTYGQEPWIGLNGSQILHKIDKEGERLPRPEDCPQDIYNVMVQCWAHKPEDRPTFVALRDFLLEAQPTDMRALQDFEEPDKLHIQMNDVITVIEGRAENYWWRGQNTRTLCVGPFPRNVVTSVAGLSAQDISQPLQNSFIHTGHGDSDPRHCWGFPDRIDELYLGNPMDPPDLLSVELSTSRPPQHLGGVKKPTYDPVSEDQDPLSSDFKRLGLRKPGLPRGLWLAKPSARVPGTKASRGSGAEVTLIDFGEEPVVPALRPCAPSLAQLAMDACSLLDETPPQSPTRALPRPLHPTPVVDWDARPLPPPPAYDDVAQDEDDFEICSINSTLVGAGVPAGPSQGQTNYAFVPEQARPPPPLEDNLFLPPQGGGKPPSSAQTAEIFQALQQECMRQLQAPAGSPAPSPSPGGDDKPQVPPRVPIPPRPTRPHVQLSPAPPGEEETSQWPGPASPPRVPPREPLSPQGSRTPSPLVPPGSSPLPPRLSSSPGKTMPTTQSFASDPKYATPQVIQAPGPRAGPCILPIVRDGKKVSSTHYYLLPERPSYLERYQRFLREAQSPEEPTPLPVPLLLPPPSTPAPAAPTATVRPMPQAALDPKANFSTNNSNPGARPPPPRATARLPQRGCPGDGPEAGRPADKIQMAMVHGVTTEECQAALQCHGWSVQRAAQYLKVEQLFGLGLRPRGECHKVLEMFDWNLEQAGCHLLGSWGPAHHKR
Chain of HIPK1(h) (Q86Z02 whole entry): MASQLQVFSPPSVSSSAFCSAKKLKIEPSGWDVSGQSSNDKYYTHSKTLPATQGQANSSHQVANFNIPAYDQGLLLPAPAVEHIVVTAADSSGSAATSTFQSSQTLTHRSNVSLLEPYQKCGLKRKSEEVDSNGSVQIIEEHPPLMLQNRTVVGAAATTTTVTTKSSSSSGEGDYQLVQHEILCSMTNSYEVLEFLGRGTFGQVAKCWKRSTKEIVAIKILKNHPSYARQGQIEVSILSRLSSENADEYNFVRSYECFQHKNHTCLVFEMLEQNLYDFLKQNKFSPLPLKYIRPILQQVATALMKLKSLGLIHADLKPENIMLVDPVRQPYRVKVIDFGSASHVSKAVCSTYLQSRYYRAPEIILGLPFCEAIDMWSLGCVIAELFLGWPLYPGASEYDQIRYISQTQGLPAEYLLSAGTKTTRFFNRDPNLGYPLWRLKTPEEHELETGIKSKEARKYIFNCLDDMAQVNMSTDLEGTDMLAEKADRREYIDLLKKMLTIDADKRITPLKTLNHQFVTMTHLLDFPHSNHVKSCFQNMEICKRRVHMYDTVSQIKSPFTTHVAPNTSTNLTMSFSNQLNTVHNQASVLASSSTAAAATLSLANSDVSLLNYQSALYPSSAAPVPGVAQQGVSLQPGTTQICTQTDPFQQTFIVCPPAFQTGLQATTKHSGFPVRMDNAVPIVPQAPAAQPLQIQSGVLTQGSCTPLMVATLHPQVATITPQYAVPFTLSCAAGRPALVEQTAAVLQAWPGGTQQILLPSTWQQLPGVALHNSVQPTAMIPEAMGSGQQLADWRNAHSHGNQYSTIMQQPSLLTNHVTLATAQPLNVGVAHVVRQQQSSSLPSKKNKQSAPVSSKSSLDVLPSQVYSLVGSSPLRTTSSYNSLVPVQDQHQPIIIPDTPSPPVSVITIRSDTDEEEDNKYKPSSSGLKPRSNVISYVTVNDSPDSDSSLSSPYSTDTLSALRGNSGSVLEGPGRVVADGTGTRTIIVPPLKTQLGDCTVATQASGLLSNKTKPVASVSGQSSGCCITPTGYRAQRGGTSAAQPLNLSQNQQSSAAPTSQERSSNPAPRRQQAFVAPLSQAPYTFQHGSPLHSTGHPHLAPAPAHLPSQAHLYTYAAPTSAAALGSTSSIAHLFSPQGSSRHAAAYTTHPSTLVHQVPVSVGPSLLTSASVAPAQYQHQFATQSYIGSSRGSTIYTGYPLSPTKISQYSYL
Chain of PAK2(h) (Q13177 whole entry): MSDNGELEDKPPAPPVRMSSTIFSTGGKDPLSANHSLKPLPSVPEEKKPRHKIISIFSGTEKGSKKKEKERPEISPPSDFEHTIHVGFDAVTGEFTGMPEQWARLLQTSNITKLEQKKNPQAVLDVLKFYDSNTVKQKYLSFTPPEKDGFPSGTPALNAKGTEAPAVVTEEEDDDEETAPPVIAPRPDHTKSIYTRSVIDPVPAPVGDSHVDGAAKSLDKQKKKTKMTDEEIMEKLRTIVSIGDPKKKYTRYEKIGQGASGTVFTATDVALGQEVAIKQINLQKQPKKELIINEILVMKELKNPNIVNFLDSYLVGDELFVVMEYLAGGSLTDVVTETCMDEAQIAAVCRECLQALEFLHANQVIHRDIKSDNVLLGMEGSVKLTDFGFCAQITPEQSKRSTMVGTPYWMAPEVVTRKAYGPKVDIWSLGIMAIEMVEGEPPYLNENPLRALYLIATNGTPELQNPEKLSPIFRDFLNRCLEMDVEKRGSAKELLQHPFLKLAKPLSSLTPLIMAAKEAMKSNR
Chain of Plk1(h) (P53350 whole entry): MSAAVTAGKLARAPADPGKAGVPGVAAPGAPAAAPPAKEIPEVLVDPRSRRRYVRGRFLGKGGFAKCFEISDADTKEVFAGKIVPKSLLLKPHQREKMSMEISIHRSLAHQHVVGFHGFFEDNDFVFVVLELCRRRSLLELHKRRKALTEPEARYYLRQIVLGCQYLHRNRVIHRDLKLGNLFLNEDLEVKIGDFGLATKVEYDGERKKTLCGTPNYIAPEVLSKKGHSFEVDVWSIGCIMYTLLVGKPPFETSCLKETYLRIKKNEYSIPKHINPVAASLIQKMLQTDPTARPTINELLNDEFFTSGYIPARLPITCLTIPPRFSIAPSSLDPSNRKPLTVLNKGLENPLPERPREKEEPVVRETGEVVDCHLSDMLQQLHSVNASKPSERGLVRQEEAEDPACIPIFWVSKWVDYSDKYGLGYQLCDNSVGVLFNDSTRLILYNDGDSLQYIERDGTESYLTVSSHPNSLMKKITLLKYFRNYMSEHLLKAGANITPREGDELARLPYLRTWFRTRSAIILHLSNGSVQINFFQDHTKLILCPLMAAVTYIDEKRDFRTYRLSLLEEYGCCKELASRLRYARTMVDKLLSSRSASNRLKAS
Chain of AMPKα1(h) (Q13131 whole entry): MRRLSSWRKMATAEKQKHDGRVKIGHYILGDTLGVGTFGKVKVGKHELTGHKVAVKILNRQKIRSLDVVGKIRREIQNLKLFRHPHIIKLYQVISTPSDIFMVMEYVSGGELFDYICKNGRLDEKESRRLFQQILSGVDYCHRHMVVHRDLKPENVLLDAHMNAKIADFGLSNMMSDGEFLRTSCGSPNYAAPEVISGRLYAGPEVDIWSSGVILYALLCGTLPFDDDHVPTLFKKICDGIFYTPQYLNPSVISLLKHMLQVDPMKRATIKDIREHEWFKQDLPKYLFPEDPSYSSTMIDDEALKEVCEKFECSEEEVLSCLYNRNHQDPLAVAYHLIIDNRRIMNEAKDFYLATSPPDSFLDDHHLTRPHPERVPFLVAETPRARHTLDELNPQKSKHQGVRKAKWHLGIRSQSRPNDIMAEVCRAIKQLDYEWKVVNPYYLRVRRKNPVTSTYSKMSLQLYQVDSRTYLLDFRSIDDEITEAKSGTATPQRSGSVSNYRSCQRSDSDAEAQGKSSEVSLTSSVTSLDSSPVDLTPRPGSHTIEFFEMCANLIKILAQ
Chain of AMPKα1(h) (Q9Y478 whole entry partner): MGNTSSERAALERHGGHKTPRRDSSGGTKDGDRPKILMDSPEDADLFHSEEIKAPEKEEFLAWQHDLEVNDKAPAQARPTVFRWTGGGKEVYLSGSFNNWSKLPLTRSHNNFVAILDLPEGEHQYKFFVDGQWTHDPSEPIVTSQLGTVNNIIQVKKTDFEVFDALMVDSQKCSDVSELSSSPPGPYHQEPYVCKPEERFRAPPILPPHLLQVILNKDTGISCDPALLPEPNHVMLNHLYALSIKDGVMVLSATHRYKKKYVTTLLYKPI
Chain of AMPKα1(h) (P54619 whole entry partner): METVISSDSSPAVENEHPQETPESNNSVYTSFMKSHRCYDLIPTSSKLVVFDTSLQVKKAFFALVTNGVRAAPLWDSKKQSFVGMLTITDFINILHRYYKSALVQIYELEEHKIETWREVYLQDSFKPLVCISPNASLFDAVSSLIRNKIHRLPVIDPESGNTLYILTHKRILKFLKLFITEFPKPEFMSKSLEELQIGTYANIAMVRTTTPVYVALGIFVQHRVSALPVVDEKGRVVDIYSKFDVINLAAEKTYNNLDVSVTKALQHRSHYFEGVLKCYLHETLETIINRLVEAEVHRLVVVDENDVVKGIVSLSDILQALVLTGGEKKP

SMILES | inhibition at 1 µM (ACK1(h)) [%] | inhibition at 1 µM (HIPK1(h)) [%] | inhibition at 1 µM (AMPKα1(h)) [%] | inhibition at 1 µM (CaMKIV(h)) [%] | inhibition at 1 µM (PAK2(h)) [%] | inhibition at 1 µM (TAO1(h)) [%] | inhibition at 1 µM (SAPK3(h)) [%] | inhibition at 1 µM (Plk1(h)) [%]
Nc1n[nH]c2ccc(-c3ccnc4[nH]c(-c5ccccc5)cc34)cc12 [Compound 4] | 83 | 14 | 23 | 4 | 18 | 73 | 99 | -5
Nc1n[nH]c2ccc(-c3ccnc4[nH]c(-c5cccc(OCc6ccccc6)c5)cc34)cc12 [Compound 5r [SU1261]] | 41 | -11 | -7 | 6 | 1 | 16 | 49 | -1
Nc1n[nH]c2ccc(-c3ccnc4[nH]c(-c5ccnc(OCc6ccccc6)c5)cc34)cc12 [Compound 6g [SU1349]] | 17 | 5 | -5 | -9 | 0 | 5 | 44 | 2
